{
  "source": "paper PMC5350573",
  "about": "(Redox Biology, 2017)",
  "type_in_all_cases": "biochemical",
  "key": {"[1]": {"target": "T1, catalase (Bos taurus, UniProt P00432)", "T1 sequence (P00432 2-527)": "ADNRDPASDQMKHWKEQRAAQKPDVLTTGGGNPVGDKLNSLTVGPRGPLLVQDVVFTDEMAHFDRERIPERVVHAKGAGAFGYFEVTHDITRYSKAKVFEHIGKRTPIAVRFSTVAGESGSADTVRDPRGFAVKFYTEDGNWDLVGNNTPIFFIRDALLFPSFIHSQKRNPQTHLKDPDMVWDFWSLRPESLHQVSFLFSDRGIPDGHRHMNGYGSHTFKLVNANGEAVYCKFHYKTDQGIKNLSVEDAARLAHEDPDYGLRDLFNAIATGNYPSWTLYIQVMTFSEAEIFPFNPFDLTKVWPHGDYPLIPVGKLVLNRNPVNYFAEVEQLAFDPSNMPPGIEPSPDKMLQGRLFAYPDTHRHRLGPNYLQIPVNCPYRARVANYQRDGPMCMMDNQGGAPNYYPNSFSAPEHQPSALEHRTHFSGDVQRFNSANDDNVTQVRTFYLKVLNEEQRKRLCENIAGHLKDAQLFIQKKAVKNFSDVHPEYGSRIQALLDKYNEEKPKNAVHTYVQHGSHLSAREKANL", "test": "amperometric", "conditions": "read-out: % increase at 400 μM"}, "[2]": {"target": "T1, catalase", "test": "amperometric H2S release from DTT by isolated catalase"}, "[3]": {"target": "T1, catalase", "test": "amperometric H2S release from SO2"}},
  "data": [
    {"smiles": "NC(=O)C1=CN([C@@H]2O[C@H](COP(=O)(O)OP(=O)(O)OC[C@H]3O[C@@H](n4cnc5c(N)ncnc54)[C@H](OP(=O)(O)O)[C@@H]3O)[C@@H](O)[C@H]2O)C=CC1", "note": "[NADPH]", "values": [
      {"measurement": "activation at 400 µM", "setting": "[1]", "result": "~50", "unit": "%"}
    ]},
    {"smiles": "O[C@H](CS)[C@H](O)CS", "note": "(racemic) [DTT, dithiothreitol]", "values": [
      {"measurement": "amperometric H2S release from DTT by isolated catalase", "setting": "[2]", "result": "catalase concentration-dependent increase in H2S release (Fig. 7B) confirming that catalase reacts directly with DTT to generate H2S"}
    ]},
    {"smiles": "O=S=O", "note": "[SO2, sulfur dioxide]", "values": [
      {"measurement": "EC50", "setting": "[3]", "result": "~ between 300 μM and 1 mM"}
    ]}
  ]
}
